# Test results: US8809331B2 (Genentech, Inc., priority 2011, dated 2014)
# Molecular target: T1, LRRK2 (Homo sapiens, UniProt Q5S007, G2019S)
# T1 construct: purchased Invitrogen PV4882
# Assay: In Vitro LRRK2 LabChip Assay (LRRK2 Ki)
# Format: biochemical
# Conditions: Table 5 compounds (formula I)
# Method: In Vitro LRRK2 LabChip Assay
# This assay was used to determine a compound's potency in inhibiting activity of LRRK2 by determining, Kiapp, IC50, or percent inhibition values. In a polypropylene plate, LRRK2, fluorescently-labeled peptide substrate, ATP and test compound were incubated together. Using a LabChip 3000 (Caliper Life Sciences), after the reaction the substrate was separated by capillary electrophoresis into two populations: phosphorylated and unphosphorylated. The relative amounts of each were quantitated by fluorescence intensity. LRRK2 Ki was determined according to the equation: Y=V0*(1−((x+Ki*(1+S/Km)+Et)/(2*Et)−(((x+Ki*(1+S/Km)+Et)^2−(4*Et*x))^0.5)/(2*Et))). Ki values in Table 4 and elsewhere herein are shown in μM.
# Assay conditions and materials used were as follows:
# LRRK2 Wild type in 5 mM MgCl2: 15 nM (Invitrogen lot #500607F)
# Kinase reaction time: 2 hours
# Wild type in 5 mM MgCl2: 80 μM
# Solid Support: Black 50 μL volume polypropylene 384 well plate (MatriCal cat # MP101-1-PP)
# Kinase: LRRK2 G2019S (Invitrogen cat #PV4882). • LRRK2 Wild type (Invitrogen cat #PV4874).
# Substrate: 5FAM-[…]-CONH2
# Non-binding plate: 384 well clear V-bottom polypropylene plates (Greiner cat #781280).
# ATP: 10 mM ATP (Cell Signaling cat #9804).
# Coating Reagent #3: Coating Reagent #3 (Caliper).
# Complete Reaction Buffer: H2O/25 mM Tris, pH 8.0/5 mM MgCl2/2 mM DTT/0.01% Triton X-100.
# Stop Solution: H2O/100 mM HEPES, pH 7.2/0.015% Brij-35/0.2% Coating Reagent #3/20 mM EDTA.
# Separation Buffer: H2O/100 mM HEPES, pH 7.2/0.015% Brij-35/0.1% Coating Reagent #3/1:200 Coating Reagent #8/10 mM EDTA/5% DMSO.
# Compound Plate Preparation:
# For serial dilutions, 34.6 μl DMSO was added to columns 3-24. For the assay controls, 37.5 μl DMSO was added to columns 1 and 2 of rows A and P. a, d and 50 μl 25 μM G-028831 (Staurosporine) was added to columns 1 and 2, row B. For the samples: to start at 100 μM, 37.5 μl DMSO was to columns 1 and 2, then 12.5 μl 10 mM compound; to start at 10 μM, 78 μl DMSO was added to columns 1 & 2, then 2 μl 10 mM compound; and to start at 1 μM, 25 μM compound (2 μl 10 mM cmpd+798 μl DMSO) was added to empty columns 1 and 2. A Precision instrument was used to perform 1:3.16 serial dilutions (“PLK_BM_serial_halflog”).
# ATP was diluted to 282.1 μM in Complete Kinase Buffer (final concentration was 130 μM).
# Total and Blank Preparation:
# In Complete Reaction Buffer, substrate was diluted to 4 μM. Equal volumes of Complete Reaction Buffer and 4 μM substrate were combined to obtain the blank. Equal volumes of Complete Reaction Buffer and 4 μM substrate were combined and to the combined solution was added 2× final LRRK2 concentration.
# To a 50 μl polypropylene plate, 5 μl/well buffer/substrate was added by hand to Blank wells. A Biomek FX was used to start the kinase reaction (“PLK SAR 23 ATP”). The following were added to the appropriate wells:
# 5 μl/well compound/ATP in Assay Plate;
# 5 μl/well kinase/substrate in Assay Plate;
# The plate was incubated for 2 hours in the dark. Biomek FX was used to stop the kinase reaction (“PLK Stop”), and 10 μl/well Stop solution was added to the Assay Plate. Results were read on the LabChip 3000.
# The LabChip 3000 was run using the job “LRRK2 IC50” with the following job settings:
# Downstream voltage: −500 V
# Upstream voltage: −2350 V
# Post sample buffer sip time: 75 seconds
# Post dye buffer sip time: 75 seconds
# Final delay time: 200 seconds
# T1 sequence (Q5S007 whole entry G2019S): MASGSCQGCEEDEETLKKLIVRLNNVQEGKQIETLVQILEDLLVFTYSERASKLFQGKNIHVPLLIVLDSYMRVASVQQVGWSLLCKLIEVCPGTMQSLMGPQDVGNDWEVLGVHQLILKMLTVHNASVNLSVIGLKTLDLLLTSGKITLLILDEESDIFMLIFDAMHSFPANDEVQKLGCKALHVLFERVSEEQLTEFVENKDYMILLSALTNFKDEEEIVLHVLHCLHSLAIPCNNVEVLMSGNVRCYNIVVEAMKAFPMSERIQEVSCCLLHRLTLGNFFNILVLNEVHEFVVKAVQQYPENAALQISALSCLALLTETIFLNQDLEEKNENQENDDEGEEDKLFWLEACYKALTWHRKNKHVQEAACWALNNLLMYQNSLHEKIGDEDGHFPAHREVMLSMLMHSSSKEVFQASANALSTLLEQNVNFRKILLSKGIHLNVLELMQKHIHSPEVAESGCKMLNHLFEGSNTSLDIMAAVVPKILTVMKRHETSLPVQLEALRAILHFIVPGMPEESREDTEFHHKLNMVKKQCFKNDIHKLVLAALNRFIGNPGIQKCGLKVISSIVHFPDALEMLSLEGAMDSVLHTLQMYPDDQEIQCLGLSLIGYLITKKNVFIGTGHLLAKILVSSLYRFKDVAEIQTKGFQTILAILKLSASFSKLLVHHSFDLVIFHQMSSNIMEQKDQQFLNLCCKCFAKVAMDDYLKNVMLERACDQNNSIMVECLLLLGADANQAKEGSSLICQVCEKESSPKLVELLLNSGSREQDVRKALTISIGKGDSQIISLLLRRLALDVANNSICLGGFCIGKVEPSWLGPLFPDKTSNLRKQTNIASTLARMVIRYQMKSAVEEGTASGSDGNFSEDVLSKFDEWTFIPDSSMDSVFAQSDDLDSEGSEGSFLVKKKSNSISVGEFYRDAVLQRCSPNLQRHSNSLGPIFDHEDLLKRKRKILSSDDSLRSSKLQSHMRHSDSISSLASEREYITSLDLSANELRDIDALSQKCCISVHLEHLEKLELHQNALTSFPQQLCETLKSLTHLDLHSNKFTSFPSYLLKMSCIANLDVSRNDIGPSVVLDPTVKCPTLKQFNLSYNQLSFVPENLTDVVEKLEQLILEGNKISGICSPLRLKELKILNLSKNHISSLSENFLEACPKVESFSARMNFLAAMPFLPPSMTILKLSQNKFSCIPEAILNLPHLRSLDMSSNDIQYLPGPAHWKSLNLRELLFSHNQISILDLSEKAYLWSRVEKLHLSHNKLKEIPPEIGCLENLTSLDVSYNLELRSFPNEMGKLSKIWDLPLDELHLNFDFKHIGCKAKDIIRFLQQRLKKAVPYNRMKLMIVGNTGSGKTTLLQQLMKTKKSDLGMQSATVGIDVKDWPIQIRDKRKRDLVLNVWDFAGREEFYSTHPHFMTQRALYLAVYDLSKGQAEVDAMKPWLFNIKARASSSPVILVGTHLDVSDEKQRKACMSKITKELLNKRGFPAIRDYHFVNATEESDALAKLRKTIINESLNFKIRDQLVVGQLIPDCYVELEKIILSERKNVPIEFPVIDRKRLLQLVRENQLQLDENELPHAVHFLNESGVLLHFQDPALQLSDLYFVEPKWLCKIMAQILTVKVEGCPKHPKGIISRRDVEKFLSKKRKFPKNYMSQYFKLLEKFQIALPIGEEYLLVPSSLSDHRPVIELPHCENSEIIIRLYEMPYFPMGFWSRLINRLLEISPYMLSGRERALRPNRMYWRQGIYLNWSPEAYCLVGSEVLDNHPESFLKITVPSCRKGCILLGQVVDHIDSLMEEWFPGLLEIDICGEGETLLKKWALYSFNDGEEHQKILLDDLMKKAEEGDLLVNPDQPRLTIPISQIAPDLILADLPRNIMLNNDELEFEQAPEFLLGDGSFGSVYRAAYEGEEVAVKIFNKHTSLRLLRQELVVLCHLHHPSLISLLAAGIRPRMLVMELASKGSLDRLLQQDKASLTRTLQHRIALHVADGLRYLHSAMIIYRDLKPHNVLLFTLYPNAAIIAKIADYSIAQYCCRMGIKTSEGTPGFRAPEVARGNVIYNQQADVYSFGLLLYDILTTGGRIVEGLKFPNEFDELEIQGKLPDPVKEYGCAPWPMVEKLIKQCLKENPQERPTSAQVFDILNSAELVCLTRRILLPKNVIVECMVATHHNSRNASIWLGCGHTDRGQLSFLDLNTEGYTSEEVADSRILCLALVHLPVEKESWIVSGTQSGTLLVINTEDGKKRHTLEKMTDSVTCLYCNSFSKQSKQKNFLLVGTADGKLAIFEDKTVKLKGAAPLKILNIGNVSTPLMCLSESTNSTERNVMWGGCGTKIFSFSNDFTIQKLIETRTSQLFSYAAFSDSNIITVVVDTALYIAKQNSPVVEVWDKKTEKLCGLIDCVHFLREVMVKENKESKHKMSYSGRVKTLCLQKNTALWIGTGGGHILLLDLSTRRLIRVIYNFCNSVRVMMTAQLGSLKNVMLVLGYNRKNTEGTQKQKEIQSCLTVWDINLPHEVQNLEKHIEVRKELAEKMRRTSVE
row,SMILES,Ki [nM]
1,"CNc1nc(Nc2ccc(C(=O)N3CCOCC3)c(F)c2F)ncc1Cl [Compound 13, [4-(5-Chloro-4-methylamino-pyrimidin-2-ylamino)-2,3-difluoro-phenyl]-morpholin-4-yl-methanone]",14.5
2,"CNc1nc(Nc2cc(OC)c(C(=O)N3CCN(C4COC4)CC3)cc2Cl)ncc1C(F)(F)F [Compound 23, [5-Chloro-2-methoxy-4-(4-methylamino-5-trifluoromethyl-pyrimidin-2-ylamino)-phenyl]-(4-oxetan-3-yl-piperazin-1-yl)-methanone]",4.09
3,"CNc1nc(Nc2cc(OC)c(C(=O)N3CCN(CCOC)CC3)cc2Cl)ncc1C(F)(F)F [Compound 1, [5-Chloro-2-methoxy-4-(4-methylamino-5-trifluoromethyl-pyrimidin-2-ylamino)-phenyl]-[4-(2-methoxy-ethyl)-piperazin-1-yl]-methanone]",4
4,"CCNc1nc(Nc2ccc(C(=O)NC(C)(C)C)cc2OC)ncc1C(F)(F)F [Compound 21, N-tert-Butyl-4-(4-ethylamino-5-trifluoromethyl-pyrimidin-2-ylamino)-3-methoxy-benzamide]",0.371
5,"CNc1nc(Nc2ccc(C(=O)N3CCOCC3)c(F)c2F)ncc1C(F)(F)F [Compound 12, [2,3-Difluoro-4-(4-methylamino-5-trifluoromethyl-pyrimidin-2-ylamino)-phenyl]-morpholin-4-yl-methanone]",13.5
6,"CCNc1nc(Nc2cc(F)c(C(=O)NCC(C)(C)O)cc2OC)ncc1C(F)(F)F [Compound 18, 4-(4-Ethylamino-5-trifluoromethyl-pyrimidin-2-ylamino)-2-fluoro-N-(2-hydroxy-2-methyl-propyl)-5-methoxy-benzamide]",0.429
7,"CNc1nc(Nc2cc(F)c(C(=O)N3C[C@H](F)[C@@H](F)C3)cc2OC)ncc1C(F)(F)F [Compound 36, ((3S,4S)-3,4-Difluoro-pyrrolidin-1-yl)-[2-fluoro-5-methoxy-4-(4-methylamino-5-trifluoromethyl-pyrimidin-2-ylamino)-phenyl]-methanone]",4.42
8,"O=C(c1cc(F)c(Nc2ncc(C(F)(F)F)c(NC3CC3)n2)cc1F)N1CCOCC1 [Compound 52, [4-(4-Cyclopropylamino-5-trifluoromethyl-pyrimidin-2-ylamino)-2,5-difluoro-phenyl]-morpholin-4-yl-methanone]",3.35
9,"COc1nc(Nc2ccc(C(=O)N3CCOCC3)cc2O)ncc1Cl [Compound 9, [4-(5-Chloro-4-methoxy-pyrimidin-2-ylamino)-3-hydroxy-phenyl]-morpholin-4-yl-methanone]",120
10,"CNc1nc(Nc2cc(OC)c(C(=O)NCC(C)(C)O)cc2F)ncc1C(F)(F)F [Compound 27, 5-Fluoro-N-(2-hydroxy-2-methyl-propyl)-2-methoxy-4-(4-methylamino-5-trifluoromethyl-pyrimidin-2-ylamino)-benzamide]",11.7
11,"COc1cc(C(=O)NCC(C)(C)O)c(F)cc1Nc1ncc(C(F)(F)F)c(NC2CC2)n1 [Compound 45, 4-(4-Cyclopropylamino-5-trifluoromethyl-pyrimidin-2-ylamino)-2-fluoro-N-(2-hydroxy-2-methyl-propyl)-5-methoxy-benzamide]",0.31
12,"CCNc1nc(Nc2ccc(C(=O)N3CC[C@H](F)C3)cc2OC)ncc1C#N [Compound 54, 4-Ethylamino-2-[4-((S)-3-fluoro-pyrrolidine-1-carbonyl)-2-methoxy-phenylamino]-pyrimidine-5-carbonitrile]",82.5

# Second part, the compound after the results:
row,Ki [nM],SMILES
1,17.5,"CCNc1nc(Nc2ccc(C(=O)N3CC[C@H](F)C3)cc2F)ncc1C#N [Compound 98, 4-Ethylamino-2-[2-fluoro-4-((S)-3-fluoro-pyrrolidine-1-carbonyl)-phenylamino]-pyrimidine-5-carbonitrile]"
2,0.577,"CCNc1nc(Nc2cc(OC)c(C(=O)N3CCOCC3)cc2OC)ncc1C(F)(F)F [Compound 125, [4-(4-Ethylamino-5-trifluoromethyl-pyrimidin-2-ylamino)-2,5-dimethoxy-phenyl]-morpholin-4-yl-methanone]"
3,0.326,"COc1cc(Nc2ncc(C(F)(F)F)c(NC3CCC3)n2)c(Cl)cc1C(=O)N1CCOCC1 [Compound 113, [5-Chloro-4-(4-cyclobutylamino-5-trifluoromethyl-pyrimidin-2-ylamino)-2-methoxy-phenyl]-morpholin-4-yl-methanone]"
4,11.2,"COc1nc(Nc2cc(C)c(C(=O)N3CCCC3)cc2OCF)ncc1Cl [Compound 119, [4-(5-Chloro-4-methoxy-pyrimidin-2-ylamino)-5-fluoromethoxy-2-methyl-phenyl]-pyrrolidin-1-yl-methanone]"
5,4.42,"CNc1nc(Nc2cc(OC)c(C(=O)N(C)C)cc2OCF)ncc1C(F)(F)F [Compound 120, 5-Fluoromethoxy-2-methoxy-N,N-dimethyl-4-(4-methylamino-5-trifluoromethyl-pyrimidin-2-ylamino)-benzamide]"
6,2600,"CCN(c1ncc(C(F)(F)F)c(NC)n1)c1cc(C)c(C(=O)N2CCOCC2)cc1OCF [Compound 89, {4-[Ethyl-(4-methylamino-5-trifluoromethyl-pyrimidin-2-yl)-amino]-5-fluoromethoxy-2-methyl-phenyl}-morpholin-4-yl-methanone]"
7,3.2,"CNc1nc(Nc2cc(OC)c(C(=O)N3CCCC3)cc2OCF)ncc1C(F)(F)F [Compound 90, [5-Fluoromethoxy-2-methoxy-4-(4-methylamino-5-trifluoromethyl-pyrimidin-2-ylamino)-phenyl]-pyrrolidin-1-yl-methanone]"
8,0.31,"CCNc1nc(Nc2cc(C)c(C(=O)NCC(C)(C)O)cc2OC)ncc1C(F)(F)F [Compound 105, 4-(4-Ethylamino-5-trifluoromethyl-pyrimidin-2-ylamino)-N-(2-hydroxy-2-methyl-propyl)-5-methoxy-2-methyl-benzamide]"
9,6.87,"CCNc1nc(Nc2cc(OC(F)F)c(C(=O)N3CCOCC3)cc2Cl)ncc1C(F)(F)F [Compound 78, [5-Chloro-2-difluoromethoxy-4-(4-ethylamino-5-trifluoromethyl-pyrimidin-2-ylamino)-phenyl]-morpholin-4-yl-methanone]"
10,0.31,"COc1cc(C(=O)N2CCOCC2)c(C)cc1Nc1ncc(C(F)(F)F)c(NC2CCC2)n1 [Compound 129, [4-(4-Cyclobutylamino-5-trifluoromethyl-pyrimidin-2-ylamino)-5-methoxy-2-methyl-phenyl]-morpholin-4-yl-methanone]"
11,28.9,"CCNc1nc(Nc2ccc(C(=O)N3CC[C@H](F)C3)cc2Cl)ncc1C#N [Compound 108, 2-[2-Chloro-4-((S)-3-fluoro-pyrrolidine-1-carbonyl)-phenylamino]-4-ethylamino-pyrimidine-5-carbonitrile]"
12,1.09,"CNc1nc(Nc2cc(OC)c(C(=O)N3CCOCC3)cc2OC)ncc1C(F)(F)F [Compound 65, [2,5-Dimethoxy-4-(4-methylamino-5-trifluoromethyl-pyrimidin-2-ylamino)-phenyl]-morpholin-4-yl-methanone]"
13,0.388,"CCNc1nc(Nc2cc(OC)c(C(=O)N3CCC(F)(F)C3)cc2OCF)ncc1C(F)(F)F [Compound 66, (3,3-Difluoro-pyrrolidin-1-yl)-[4-(4-ethylamino-5-trifluoromethyl-pyrimidin-2-ylamino)-5-fluoromethoxy-2-methoxy-phenyl]-methanone]"
14,5.5,"COc1cc(C(=O)N2CCOCC2)c(OC)cc1Nc1ncc(Cl)c(OC)n1 [Compound 87, [4-(5-Chloro-4-methoxy-pyrimidin-2-ylamino)-2,5-dimethoxy-phenyl]-morpholin-4-yl-methanone]"
